# In patent publication US8372830B2, “Methods for using vasopressin antagonists with anthracycline chemotherapy agents to reduce cardiotoxicity and/or improve survival” (Otsuka Pharmaceutical Co., Ltd., priority 2007, dated 2013):
# What was measured:
# [1] = tested on: doxorubicin toxicity under elevated vasopressin condition
# Experimental: This condition may be relevant to certain cancer patients who have elevated vasopressin release and are undergoing chemotherapy, such as with doxorubicin.
# Two groups of rats were studied and the protocol is described in FIG. 13. Rats were intravenously injected with doxorubicin (3 mg/kg) 3 times once every other day for a total of 9 mg/kg (same as described in Example 4). One group (Dox+DDAVP) was given vehicle and the other group (Dox+DDAVP+Tol) was administered tolvaptan (10 mg/kg) once daily. An osmotic minipump (infusion rate: 0.15 μl/h, ALZET model 2006, ALZA Corporation) was implanted in each rat for continuous subcutaneous infusion of 1 ng/h of DDAVP (a vasopressin V2 agonist [deamino-Cys1, D-Arg8]-vasopressin).
# [2] = tested on: doxorubicin-induced mortality; assay: DDAVP infusion and doxorubicin-induced mortality (Example 2); format: in vivo, rat; settings: DDAVP 1 ng/h s.c. infusion 14 days + doxorubicin 6 x 2.5 mg/kg i.p.; vs doxorubicin alone; p<0.001 Log-Rank; FIG. 4
# Experimental: The present inventors investigated whether activation of V2 receptors can accelerate doxorubicin-induced mortality. A continuous subcutaneous infusion of 1 ng/h of DDAVP (deamino-Cyst, D-Arg-vasopressin) per animal was accomplished using an osmotic minipump (infusion rate: 0.5 μL/h, ALZET model 2002, DURECT Corporation, Cupertino, Calif.) for 14 days. On day 0 an osmotic minipump was implanted subcutaneously. The sham control rats had the same surgical procedure but with only saline in the minipump. The rats were then divided into two groups: one with six intraperitoneal injections of doxorubicin (2.5 mg/kg) during a 13 day period, and one with injections of saline. The rats were fed with liquid food throughout the experiment. With the continuous infusion of DDAVP, liquid food feeding increases systemic volume overload and edema, conditions often observed in CHF patients.
# [3] = tested on: doxorubicin-treated rats; settings: antagonist given several weeks after doxorubicin, previous study (ref. 25); cited from earlier work
# [4] = tested on: total white blood cell (WBC) and lymphocyte (LY) counts; assay: Myelosuppression: blood cell counts after doxorubicin (Example 3)
# Experimental: (§1) To determine whether tolvaptan affects the plasma concentration of doxorubicin, plasma samples were obtained after the first (day 1) and sixth (day 13) injection of doxorubicin with vehicle or tolvaptan, and the plasma concentration of doxorubicin was measured.
# Anthracyclines including doxorubicin are known to cause myelosuppression due to their ability to intercalate into DNA, and to inhibit new protein synthesis and cell proliferation in the bone marrow (similar mechanisms are involved in the inhibition of cancer cell proliferation). Myelosuppression was used as an index of the ability of doxorubicin to inhibit cell proliferation and anti-cancer effect. […] Blood samples were taken after 1 or 13 days of treatment with doxorubicin.
# [5] = tested on: left ventricle; assay: Echocardiography of cardiac function, rat model with intravenous injection of doxorubicin (Example 4); format: in vivo
# Experimental: In a clinical setting, doxorubicin is administered intravenously to cancer patients. Furthermore, the major side effect associated with doxorubicin treatment is cardiac dysfunction and development of CHF. Therefore, the effect of tolvaptan on CHF was evaluated in a rat model with intravenous injection of doxorubicin. Cardiac function was determined using high resolution ultrasonograpy. Rats were divided into 3 groups as described in Table 2, and observed for 10 weeks. [table] Control rats were not treated. […] Rats were given either vehicle or tolvaptan (10 mg/kg) daily starting on the first day of doxorubicin injection. On the days with co-administration of doxorubicin and tolvaptan, tolvaptan was given by oral gavage 45 min prior to the intravenous injection of doxorubicin. Cardiac function was evaluated using echocardiography (Vevo 770, Visualsonics Inc, Toronto, Canada). Echo images were taken once a week for 10 consecutive weeks. Rats were anesthetized with Isoflurane and parasternal long and short axis echo images were recorded. Offline analysis of cardiac function (ejection fraction and fraction shortening) and anatomic data of the heart (LV end diastolic diameter and volume) were performed. At the end of the 10-week period, cardiac contractility (LVdp/dtmax/ip) was measured invasively.
# [6] = tested on: doxorubicin-induced cardiac toxicity and animal death; assay: Survival of rats given repeated intraperitoneal injections of doxorubicin (Example 1); format: in vivo, rat; settings: tolvaptan 10 mg/kg orally daily
# Experimental: Repeated injection of doxorubicin in animals is known to cause cardiac injury and to increase mortality. A study was designed to investigate the effect of tolvaptan on doxorubicin-induced cardiac toxicity and animal death. Four groups of rats were evaluated; all with 6 injections of doxorubicin (2.5 mg/kg each) during a two week period. To test the ability of tolvaptan to prevent toxicity, tolvaptan (10 mg/kg orally) daily was given to one group of rats (Tol+Dox). Another group of rats was given vehicle only (Veh+Dox). To test the ability of tolvaptan to reverse the toxicity, tolvaptan (10 mg/kg orally) daily was given to one group of rats, starting after the completion of doxorubicin administration (Dox+Tol). Another group of rats was given vehicle only (Dox+Veh). Table 1 summarizes the group designations:
# Survival was analyzed using Kaplan-Meier survival analysis with the Log-Rank test.
# [7] = tested on: left ventricle; assay: Invasive hemodynamic measurement of cardiac contractility at end of 10 weeks (Example 4); format: in vivo, rat; settings: tolvaptan-treated vs vehicle-treated doxorubicin rats, FIG. 12
# Experimental: Control rats were not treated. For groups 2 and 3 with doxorubicin treatment, rats were given three injections intravenously of doxorubicin (3 mg/kg each) every other day (total dose of 9 mg/kg). […] Rats were given either vehicle or tolvaptan (10 mg/kg) daily starting on the first day of doxorubicin injection. On the days with co-administration of doxorubicin and tolvaptan, tolvaptan was given by oral gavage 45 min prior to the intravenous injection of doxorubicin.
# Invasive hemodynamic measurements were performed at the end of the 10 week period.
# [8] = Plasma concentration of doxorubicin with vehicle or tolvaptan (Example 3); format: in vivo, rat; settings: after first (day 1) and sixth (day 13) doxorubicin injection; tolvaptan vs vehicle; FIG. 6
# Experimental: as §1
# [9] = thirteen-day treatment with doxorubicin, FIG. 7
compound,measurement,setting,value
"NC(=O)CC[C@@H]1NC(=O)[C@H](Cc2ccccc2)NC(=O)[C@H](Cc2ccc(O)cc2)NC(=O)CCSSC[C@@H](C(=O)N2CCC[C@H]2C(=O)N[C@H](CCCN=C(N)N)C(=O)NCC(N)=O)NC(=O)[C@H](CC(N)=O)NC1=O [DDAVP, [deamino-Cys1, D-Arg8]-vasopressin]",toxicity of doxorubicin under DDAVP infusion,"[1]; DDAVP 1 ng/h s.c. infusion + doxorubicin 3 x 3 mg/kg i.v., FIG. 14",very toxic
same,time in which rats died,"[1]; DDAVP 1 ng/h s.c. infusion + doxorubicin 3 x 3 mg/kg i.v., vehicle",2 weeks
same,death rate from doxorubicin,[2],significantly accelerated
Cc1ccccc1C(=O)Nc1ccc(C(=O)N2CCCC(N(C)C)c3ccccc32)cc1 (centres unmarked) [OPC-31260],mortality rate,[3],slight but not significant reduction
COc1cccc2c1C(=O)c1c(O)c3c(c(O)c1C2=O)C[C@@](O)(C(=O)CO)C[C@@H]3O[C@H]1C[C@H](N)[C@H](O)[C@H](C)O1 [doxorubicin],blood cell counts,[4]; one day treatment with doxorubicin,did not affect
same,lymphocyte (LY) count,[4]; [9],significantly reduced
same,total white blood cell (WBC) count,[4]; [9],significantly reduced
same,fractional shortening of the left ventricle,"[5]; doxorubicin 3 x 3 mg/kg i.v. every other day, weekly echo for 10 weeks, FIG. 8",progressively decreased
same,ejection fraction of the left ventricle,"[5]; doxorubicin 3 x 3 mg/kg i.v. every other day, weekly echo for 10 weeks, FIG. 9",progressively decreased
same,left ventricle diastolic volume,"[5]; doxorubicin 3 x 3 mg/kg i.v., weight adjusted, FIG. 10",progressively increased
same,left ventricle diastolic diameter,"[5]; doxorubicin 3 x 3 mg/kg i.v., weight adjusted, FIG. 11",progressively increased
"Cc1ccccc1C(=O)Nc1ccc(C(=O)N2CCCC(O)c3cc(Cl)ccc32)c(C)c1 (centres unmarked) [tolvaptan, 7-chloro-5-hydroxy-1-[2-methyl-4-(2-methylbenzoyl-amino)benzoyl]-2,3,4,5-tetrahydro-1H-benzazepine]",delay of rat death,"[6]; initiated after completion of 6 doxorubicin injections, 5 rats per group, FIG. 2",only a small delay
same,protective effect on mortality,"[6]; initiated after completion of 6 doxorubicin injections, FIG. 2",largely lost
same,"mortality rate (Kaplan-Meier survival analysis, Log-Rank test)","[6]; starting with first doxorubicin injection (6 x 2.5 mg/kg i.p.), 12 weeks, vs vehicle, p<0.001, FIG. 1",significantly reduced
same,effect on the myelosuppressive effect of doxorubicin,"[4]; rat, in vivo",did not affect
same,"cardiac function (fractional shortening, ejection fraction)","[5]; tolvaptan 10 mg/kg orally daily from first day of doxorubicin, vs vehicle, FIGS. 8 and 9",significantly improved
same,remodeling process of the left ventricle,"[5]; tolvaptan 10 mg/kg orally daily with doxorubicin, FIGS. 10 and 11",slowed
same,contractility index (LVdp/dtmax normalized to instantaneous LV pressure),[7],higher
same,survival (Kaplan-Meier),"[1]; tolvaptan 10 mg/kg once daily, Dox+DDAVP+Tol vs Dox+DDAVP, FIG. 14",significantly improved
same,effect on plasma concentration of doxorubicin,[8],did not affect
